This is an account of results in patent US8987486B2, “Trans-2-decenoic acid derivative and pharmaceutical agent containing the same” (Nagoya Industrial Science Research Institute, priority 2010, dated 2015).

One assay relates to PC12 cells. Briefly: Evaluation using PC12 cells; immunostaining method for MAPK phosphorylation. The assay is classed as cell-based. To be noted: 30 minutes. As for the experimental part:
PC12 cells were stimulated using the compound of the present invention and the phosphorylation of MAPK was evaluated by means of immunostaining of the cells. The specific operation procedure is as follows.
A cover glass was placed on a 24-well plate followed by coating with poly-L-lysine. PC12 cells were seeded in a cell density of 50,000 cells/well. (The amount of the medium was 400 μL) On the first day after seeding the cells, the medium was exchanged to DMEM containing 1% fetal bovine serum (FBS) and 0.06% L-glutamine.
The compound which was previously diluted with DMSO was dissolved in 100 μl of medium. After 12 to 16 hours from the medium exchange, 100 μl out of 400 μl of the medium was removed from each well and, in place of that, 100 μl of a medium containing the compound was added.
After 30 minutes from the addition, fixation was conducted using 4% paraformaldehyde (PFA) for 10 minutes. The fixed cells were washed with a Tris-buffered saline (TBS) and a TBS containing 0.3% Triton X was added thereto followed by incubating at 37° C. for 30 minutes. This was washed with a TBS and blocked with a TBS containing 3% skim milk for 30 minutes (at room temperature).
This was washed with a TBS for one time and a primary antibody (anti-phospho-p42/44 MAPK antibody; cell signalings; #9102 being diluted with TBS to an extent of 1,000-fold) was added thereto followed by subjecting to the reaction at 4° C. for one night. The primary antibody was removed and washed with a TBS for three times. After that, the secondary antibody (Alexa 488 goat anti-rabbit antibody; Invitrogen: being diluted to an extent of 1,000-fold using a TBS containing 1% Block Ace) was added thereto and the reaction was conducted at room temperature for 3 hours. The secondary antibody was removed and, after washing with a TBS, fixation was conducted with 4% PFA for 1 hour.
This was washed with a TBS, Hoechst (diluted with a TBS to an extent of 2000-fold) was added thereto and nuclear staining was conducted. This was washed and mounted.
Taking the photographic pictures and counting the positive cells were conducted as follows. An all-in-one microscope (manufactured by Keyence) was used, exposing time for pMAPK (green) was made 1/2.8 s, the place was appropriately decided in a Hoechst-stained image and the pictures were taken. Four pictures per one glass sheet were taken.
Photoshop (Adobe) was used and the cells having above a certain luminance were judged to be positive. All cells were labeled using Hoechst 33342 manufactured by Invitrogen and the rate of pMAPK-positive cells in Hoechst-positive cells was calculated. (cf. Table 7)

Another assay concerns MAP kinase. Briefly: Activation (phosphorylation) of MAP kinase by Western immunoblotting in cultured cerebral cortex nerve cells. The assay is classed as cell-based, rat. Further details: pMAPK/MAPK: unit not given here. The note with it: for Ratio of pMAPK to MAPK: Test Example 6, relative to control (0 μg/mL = 1.0). As for the experimental part: With regard to the compound 1 ((E)-2-(dimethylamino)-ethyl dec-2-enoate), activation of MAP kinase was measured as follows by a Western immunoblotting.
Nerve cells were dispersed from cerebral cortex of a fetal rat of 17 days age and said nerve cells were cultured for one day in a Dulbecco-modified Eagle medium (DMEM) containing 5% fetal bovine serum. The culture medium was exchanged with a serum-free medium (B27 supplement-added Neurobasal; Invitrogen) and the nerve cells were cultured at the density of 20,000 to 40,000 cells per cm^2 in a culture dish coated with polyornithine.
After three days, the compound 1 was added and the culture was continued for 30 minutes. After that, the cells were recovered on ice using a solution containing a phosphatase inhibitor where Tris-HCl buffer was a base. Protein concentration of the resulting cell extract was quantified using a BCA Protein Assay Kit (Takara Bio KK) and a certine amount of protein (3 μg for the measurement of MAP kinase and 5 μg for the measurement of phosphorylated MAP kinase) was subjected to polyacrylamide gel electrophoresis. The protein was transcribed from the gel after the electrophoresis to a PVDF membrane and a Western immunoblotting was carried out using each of an anti-MAP kinase antibody (Cell Signaling Technology) and an anti-phosphorylated MAP kinase antibody (Cell Signaling Technology) of the primary antibody.
After that, the reaction with an alkaline phosphatase-labeled anti-rabbit IgG antibody (Promega) of the secondary antibody was carried out so that the enzymatic activity was colorized whereupon the MAP kinase and the phosphorylated MAP kinase were measured.
Incidentally, the compound 1 was adjusted to the concentrations of 10 μg/ml, 30 μg/ml, 100 μg/ml and 300 μg/ml by dissolving in 0.1% DMSO. With regard to the control, 0.1% DMSO was added.
Intensity of the concentration of the above-obtained band of the gel subjected to electrophoresis was calculated and quantified using Image J (K. K. Bioarts). The numerical value for the MAP kinase using the compound 1 was divided by the numerical value for the MAP kinase of the control and, further, the numerical value for the phosphorylated MAP kinase using the compound 1 was divided by the numerical value for the phosphorylated MAP kinase of the control whereupon the ratio of the MAP kinase using the compound 1 to the control and the ratio of the phosphorylated kinase using the compound 1 to the control were determined.
After that, the resulting ratio of the phosphorylated MAP kinase to the control was divided by the resulting ratio of the MAP kinase to the control to determine the ratio of the phosphorylated MAP kinase to the MAP kinase (cf. Table 5). In Table 5, “MAPK” means a MAP kinase and “pMAPK” means a phosphorylated MAP kinase. “10”, “30”, “100” and “300” in Table 5 show the examples where 10 μg/ml, 30 μg/ml, 100 μg/ml and 300 μg/ml of the compound 1 were added.
MAP kinase and phosphorylated MAP kinase were measured for the compound 6 ((E)-2-(diethylamino)ethyl dec-2-enoate) and the compound 13 ((E)-2-(2-(diethylamino)ethoxy)ethyl dec-2-enoate) by the same method as in Test Example 1.
Each of the compounds 6 and 13 was dissolved in 0.1% DMSO to adjust to the concentration of 250 μg/ml. With regard to the control, 0.1% DMSO was added. With regard to the concentration of the resulting band of the gel subjected to electrophoresis, its intensity was calculated by the same method as in Test Example 1 using Image J (K. K. Bioarts) and the ratio of the phosphorylated MAP kinase to the control was divided by the resulting ratio of the MAP kinase to the control whereupon the ratio of the phosphorylated MAP kinase to the MAP kinase was determined (cf. Table 6).
With regard to the compound of the present invention, its activation for MAP kinase was measured by the same manner as in Test Example 1.
Each compound was dissolved in 0.1% DMSO to adjust to the concentrations of 30 μg/ml, 60 μg/ml, 125 μg/ml and 250 μg/ml. […]
For orientation: A western blot detects proteins with antibodies after separation by electrophoresis.

The mark [1] stands for this setting: 10 μg/ml, 30 minutes, fetal rat cerebral cortex nerve cells.
The mark [2] stands for this setting: 30 μg/ml, 30 minutes, fetal rat cerebral cortex nerve cells.
Setting [3] is: 100 μg/ml, 30 minutes, fetal rat cerebral cortex nerve cells.

Take `CCCCCCC/C=C/C(=O)OCCN(C)C` [Compound 1, (E)-2-(dimethylamino)ethyl dec-2-enoate]: the “Rate of pMAPK-positive cells (%)” value worked out at 4% in the assay with PC12 cells (62.5 μg/mL), 12% in the assay on PC12 cells (125 μg/mL), 36% in the assay with PC12 cells (250 μg/mL) and 32% in the assay on PC12 cells (500 μg/mL). Further, the pMAPK/MAPK is 674 in the assay with MAP kinase (setting [1]); 1071 in the assay on MAP kinase (setting [2]); 1043 with MAP kinase (setting [3]); 2234 with MAP kinase (300 μg/ml, 30 minutes, fetal rat cerebral cortex nerve cells). For the same compound, the pMAPK/MAPK/Control in the assay on MAP kinase (setting [1]) was determined as 1.38; with MAP kinase (setting [2]) it was 2.20; in the assay with MAP kinase (setting [3]), 2.14.
Consider `CCCCCCC/C=C/C(=O)OCCN(CC)CC` [Compound 6, (E)-2-(diethylamino)ethyl dec-2-enoate], for which the entries for the “Rate of pMAPK-positive cells (%)” value with PC12 cells (62.5 μg/mL) and in the assay with PC12 cells (125 μg/mL) were 31% and 51%, respectively. The same compound yielded a pMAPK/MAPK/Control with MAP kinase (250 μg/ml, Test Example 2, control = 1.00) of 1.72.
Regarding `CCCCCCC/C=C/C(=O)NCCN(C)C` [Compound 36, (E)-N-2-(dimethylamino)ethyl dec-2-enamide], the “Rate of pMAPK-positive cells (%)” value in the assay on PC12 cells (62.5 μg/mL) was 12%; with PC12 cells (125 μg/mL) it was 70%; in the assay on PC12 cells (250 μg/mL) it was 89%; in the assay with PC12 cells (500 μg/mL) it was 43%. Also, the “Ratio of pMAPK to MAPK” value in the assay with MAP kinase (30 μg/mL) is 1.6; in the assay with MAP kinase (60 μg/mL), 5.1; with MAP kinase (125 μg/mL), 0.5.
Regarding `CCCCCCC/C=C/C(=O)NCCN(CC)CC` [Compound 37, (E)-N-2-(diethylamino)ethyl dec-2-enamide], the “Rate of pMAPK-positive cells (%)” value in the assay with PC12 cells (62.5 μg/mL) was determined as 6%; in the assay on PC12 cells (125 μg/mL) it was 43%; in the assay with PC12 cells (250 μg/mL) it was 48%; with PC12 cells (500 μg/mL) it was 0%. Besides, the entries for the “Ratio of pMAPK to MAPK” value in the assay on MAP kinase (60 μg/mL), with MAP kinase (125 μg/mL) and in the assay on MAP kinase (250 μg/mL) were 3.4, 3.4 and 4.9, respectively.
Regarding `CCCCCCC/C=C/C(=O)SCCN(C)C` [Compound 55, (E)-S-2-(dimethylamino)ethyl dec-2-enethioate], the “Rate of pMAPK-positive cells (%)” value in the assay on PC12 cells (62.5 μg/mL) was 20%; in the assay on PC12 cells (125 μg/mL), 46%; in the assay with PC12 cells (250 μg/mL), 41%; in the assay on PC12 cells (500 μg/mL), 10%. For the same compound, the “Ratio of pMAPK to MAPK” value came to 4.6 in the assay on MAP kinase (30 μg/mL), 8.6 in the assay on MAP kinase (60 μg/mL) and 16.0 in the assay with MAP kinase (125 μg/mL).
